US8211831B2, “Method to use a synergistic composition” (Riceco, LLC, priority 2005, dated 2012)

How the values were obtained:
Type in all cases: in vivo
[1] = system: broadleaf weeds and sedges; assay: small plot test in Arkansas, weedy rice plot (Example 7); settings: 12 days after application
Excerpt: (§1) The chemical rates in pounds/acre were:
(§2) The following observations were made 12 days after application.

[2] = system: barnyard grass and Sprangletop (two grass species); assay: as above; settings: cyhalofop alone, high labeled rate 0.279 pounds/acre; 12 days after application
Excerpt: as §1, §2

[3] = system: broadleaf weeds and sedges; assay: small plot test in Arkansas, weedy rice plot (Example 1); settings: Clincher SF alone, 15 fluid ounces/acre (0.279 pounds ai/acre)
Excerpt: (§3) Note that the label recommended rate for Clincher® (cyhalofop) SF for controlling grasses in the 2-3 leaf stage is 13.5 fluid ounces/acre (0.251 pounds cyhalofop/acre).

grasses = assay: as above; settings: Clincher SF alone, 15 fluid ounces/acre (0.279 pounds ai/acre); 2-3 leaf barnyard grass
Excerpt: as §3

Sprangletop = assay: small plot test in Arkansas, weedy rice plot (Example 7); settings: propanil applied alone, all rates (5, 4, 3 pounds/acre); 12 days after application; 1 to 6 inch Sprangletop
Excerpt: as §1, §2

Barnyard grass = assay: commercial field application by air in Arkansas, half a weedy rice field (Example 8); settings: only propanil (Super Wham) at 4 pounds; 7 days after application

## C[C@@H](Oc1ccc(Oc2ccc(C#N)cc2F)cc1)C(=O)O [cyhalofop]
[1]; cyhalofop alone, high labeled rate 0.279 pounds/acre
  controlling broadleaf weeds and sedges: weakness in controlling broadleaf weeds and sedges
[2]
  grass control: excellent grass control
[3]
  control of the broadleaf weeds and sedges present at the time of application: 0%
grasses
  control of the grasses: controlled the grasses

## CCC(=O)Nc1ccc(Cl)c(Cl)c1 [propanil]
[1]; all rates of propanil applied (5, 4, 3 pounds/acre)
  broadleaf and sedge control: excellent broadleaf and sedge control
Sprangletop
  Sprangletop control: lack of Sprangletop control
Barnyard grass
  barnyard grass control: poor barnyard grass control
